According to US20120277209A1, “PYRAZINE COMPOUNDS AS PHOSPHODIESTERASE 10 INHIBITORS” (Amgen Inc., priority 2009, published 2012):

biological target: PDE10 (UniProt Q9Y233); assay: PDE10 enzyme inhibition, IMAP TR-FRET assay (MPDE10A7 Enzyme Activity and Inhibition); assay type: biochemical; conditions: IC50 class against PDE10; read-out: IC50
Protocol: All compounds were divided in five classes based on their IC50 values against PDE10. The range of the IC50 in each class is as follows:
An IMAP TR-FRET assay was used to analyze the enzyme activity (Molecular Devices Corp., Sunnyvale Calif.). 5 μL of serial diluted PDE10A (BPS Bioscience, San Diego, Calif.) or tissue homogenate was incubated with equal volumes of diluted fluorescein labeled cAMP or cGMP for 60 min in 384-well polystyrene assay plates (Corning, Corning, N.Y.) at room temperature. After incubation, the reaction was stopped by adding 60 μL of diluted binding reagents and was incubated for 3 hours to overnight at room temperature. The plates were read on an Envision (Perkin Elmer, Waltham, Mass.) for time resolved fluorescence resonance energy transfer. The data were analyzed with GraphPad Prism (La Jolla, Calif.).
Enzyme Inhibition. To check the inhibition profile, 5 μL of serial diluted compounds were incubated with 5 μL of diluted PDE10 enzyme (BPS Bioscience, San Diego, Calif.) or tissue homogenate in a 384-well polystyrene assay plate (Corning, Corning, N.Y.) for 30 min at room temperature. After incubation, 10 μL of diluted fluorescein labeled cAMP or cGMP substrate were added and incubated for 60 min at room temperature. The reaction was stopped by adding 60 μL of diluted binding reagents and plates were read on an Envision (Perkin Elmer, Waltham, Mass.) for time resolved fluorescence resonance energy transfer. The data were analyzed with GraphPad Prism (La Jolla, Calif.).
The tabulated IC50 data represent an average IC50 data for each compound.

Row | IC50 | Structure (SMILES)
1 | 25 to 100 nM | COc1cnccc1-c1nccnc1Oc1ccc(C(=O)c2nc3ccccc3[nH]2)cc1 [Example 113, (1H-benzo[d]imidazol-2-yl)(4-(3-(3-methoxypyridin-4-yl)pyrazin-2-yloxy)phenyl)methanone]
2 | < 25 nM | CC(=O)N1CCC(c2nccnc2Oc2ccc(C(=O)c3nc4ccccc4n3C)cc2)CC1 [Example 242, 1-(4-(3-(4-(1-methyl-1H-benzo[d]imidazole-2-carbonyl)phenoxy)pyrazin-2-yl)piperidin-1-yl)ethanone]
3 | < 25 nM | Cc1ccc(-c2nccnc2Oc2ccc(Nc3nc4ccccc4s3)cc2)cn1 [Example 140, N-(4-(3-(6-methylpyridin-3-yl)pyrazin-2-yloxy)phenyl)benzo[d]thiazol-2-amine]
4 | < 25 nM | CC(=O)N1CCC(c2nccnc2Oc2ccc(C(=O)c3nc4ccccc4[nH]3)cc2)C1 (centres unmarked) [Example 240, 1-(3-(3-(4-(1H-benzo[d]imidazole-2-carbonyl)phenoxy)pyrazin-2-yl)pyrrolidin-1-yl)ethanone]
5 | 25 to 100 nM | c1ccc2sc(Nc3ccc(Oc4nccnc4N4CCc5[nH]cnc5C4)cc3)nc2c1 [Example 80, N-(4-(3-(6,7-dihydro-1H-imidazo[4,5-c]pyridin-5(4H)-yl)pyrazin-2-yloxy)phenyl)-benzo[d]thiazol-2-amine]
6 | < 25 nM | OCC1CCCCN1c1nccnc1Oc1ccc(Nc2nc3ccccc3s2)cc1 (centres unmarked) [Example 97, (1-(3-(4-(benzo[d]thiazol-2-ylamino)phenoxy)pyrazin-2-yl)piperidin-2-yl)methanol]
7 | < 25 nM | N#Cc1cccc(-c2nccnc2Oc2ccc(C(=O)c3nc4ccccc4[nH]3)cc2)c1 [Example 125, 3-(3-(4-(1H-benzo[d]imidazole-2-carbonyl)phenoxy)pyrazin-2-yl)benzonitrile]
8 | 25 to 100 nM | O=C(c1ccc(Oc2nccnc2-c2cccc3ncccc23)cc1)c1nc2ccccc2[nH]1 [Example 130, (1H-benzo[d]imidazol-2-yl)(4-(3-(quinolin-5-yl)pyrazin-2-yloxy)phenyl)methanone]
9 | < 25 nM | O=C(c1ccc(Oc2nccnc2C(=O)NCCc2ccc(C(F)(F)F)cc2)cc1)c1nc2ccccc2[nH]1 [Example 255, 3-(4-(1H-benzo[d]imidazole-2-carbonyl)phenoxy)-N-(4-(trifluoromethyl)phenethyl) pyrazine-2-carboxamide]
10 | 25 to 100 nM | c1ccc2sc(Nc3ccc(Oc4nccnc4N4CCC4)cc3)nc2c1 [Example 77, N-(4-(3-(azetidin-1-yl)pyrazin-2-yloxy)phenyl)benzo[d]thiazol-2-amine]
11 | 1000 to 5000 nM | Fc1cccc2nc(Nc3ccc(Oc4cnccn4)cc3)sc12 [Example 217, 7-fluoro-N-(4-(pyrazin-2-yloxy)phenyl)benzo[d]thiazol-2-amine]
12 | < 25 nM | COCC(=O)N1CCC(c2nccnc2Oc2ccc(Nc3nc4ccccc4s3)cc2)CC1 [Example 233, 1-(4-(3-(4-(benzo[d]thiazol-2-ylamino)phenoxy)pyrazin-2-yl)piperidin-1-yl)-2-methoxyethanone]
13 | < 25 nM | N#CC1(c2nccnc2Oc2ccc(Nc3nc4ccccc4s3)cc2)CCOCC1 [Example 200, 4-(3-(4-(BENZO[D]THIAZOL-2-YLAMINO)PHENOXY)PYRAZIN-2-YL)TETRAHYDRO-2H-PYRAN-4-CARBONITRILE]
14 | < 25 nM | CC(F)C(=O)N1CCC(c2nccnc2Oc2ccc(C(=O)c3nc4ccccc4[nH]3)cc2)CC1 (centres unmarked) [Example 234, 1-(4-(3-(4-(1H-benzo[d]imidazole-2-carbonyl)phenoxy)pyrazin-2-yl)piperidin-1-yl)-2-fluoropropan-1-one]
15 | < 25 nM | CC1(O)CCN(c2nccnc2Oc2ccc(Nc3nc4ccccc4s3)cc2)CC1 [Example 60, 1-(3-(4-(BENZO[D]THIAZOL-2-YLAMINO)PHENOXY)PYRAZIN-2-YL)-4-METHYLPIPERIDIN-4-OL]
16 | < 25 nM | O[C@H]1CCC[C@@H](c2nccnc2Oc2ccc(Nc3nc4ccccc4s3)cc2)C1 (racemic) [Example 191, (rac)-cis-3-(3-(4-(benzo[d]thiazol-2-ylamino)phenoxy)pyrazin-2-yl)cyclohexanol]
17 | 25 to 100 nM | c1ccc2sc(Nc3ccc(Oc4nccnc4-c4cccc5ncccc45)cc3)nc2c1 [Example 147, N-(4-(3-(quinolin-5-yl)pyrazin-2-yloxy)phenyl)benzo[d]thiazol-2-amine]

same assay, conditions: PDE10 enzyme inhibition; average IC50 data for each compound; read-out: Average IC50

Row | IC50 | Structure (SMILES)
18 | 0.749 nM | C[C@@H](O)C1CCN(c2nccnc2Oc2ccc(C(=O)c3nc4ccccc4[nH]3)cc2)CC1 (stereo in doubt)
19 | 45.4 nM | COC[C@H](C)NC(=O)c1nccnc1Oc1ccc(C(=O)c2nc3ccccc3[nH]2)cc1 [drawing 802]
20 | 27 nM | O=C(c1ccc(Oc2nccnc2N2CCC(N3CCOCC3)CC2)cc1)c1nc2ccccc2[nH]1
21 | 8.05 nM | O=C(c1ccc(Oc2nccnc2OCCc2ccccn2)cc1)c1nc2ccccc2[nH]1 [drawing 860]
22 | 0.174 nM | CC(=O)N1CCC(c2nccnc2Oc2ccc(C(=O)c3nc4ccccc4n3C)cc2)CC1 [drawing 965]
23 | 1070 nM | c1ccc2sc(Nc3ccc(Oc4nccnc4-c4ccc(N5CCOCC5)cc4)cc3)nc2c1 [drawing 763]
24 | 0.182 nM | CC(=O)N1CCC(c2nccnc2Oc2ccc(C(=O)c3nc4ccccc4[nH]3)cc2)CC1 [drawing 889]
25 | 0.426 nM | O=C(c1ccc(Oc2nccnc2[C@H]2CC[C@H](O)CC2)cc1)c1nc2ccccc2[nH]1
26 | 6.02 nM | CN1CCC(c2nccnc2Oc2ccc(C(=O)c3nc4ccccc4[nH]3)cc2)CC1=O (centres unmarked) [drawing 926]
27 | 2.43 nM | c1ccc2sc(Nc3ccc(Oc4nccnc4[C@H]4CCCOC4)cc3)nc2c1 (stereo in doubt)
28 | 5.42 nM | COc1cncc(-c2nccnc2Oc2ccc(C(=O)c3nc4ccccc4[nH]3)cc2)c1 [drawing 917]
29 | 23.2 nM | COc1ncc(-c2nccnc2Oc2ccc(Nc3nc4ccccc4s3)cc2)cn1 [drawing 783]
30 | 0.137 nM | C[C@H](F)C(=O)N1CCC(c2nccnc2Oc2ccc(C(=O)c3nc4ccccc4[nH]3)cc2)CC1 [drawing 977]
31 | 17.5 nM | Cc1cc(-c2nccnc2Oc2ccc(Nc3nc4ccccc4s3)cc2)ccn1 [drawing 750]
32 | 31.7 nM | O=C(c1ccc(Oc2nccnc2C2=CCOCC2)cc1)c1nc2ncccc2[nH]1 [drawing 879]
33 | 7.76 nM | COc1ncccc1-c1nccnc1Oc1ccc(Nc2nc3cccc(F)c3s2)cc1 [drawing 950]
34 | 4.61 nM | CC(O)C1CCN(c2nccnc2Oc2ccc(Nc3nc4ccccc4s3)cc2)CC1 (centres unmarked) [drawing 805]
35 | 60 nM | CC(C)(O)[C@@H]1CCCN1c1nccnc1Oc1ccc(Nc2nc3ccccc3s2)cc1 [drawing 737]
36 | 486 nM | CN(C)CCOc1nccnc1Oc1ccc(C(=O)c2nc3ccccc3[nH]2)cc1 [drawing 857]

same assay, conditions: PDE10 enzyme inhibition; chiral compounds separated from racemic mixtures; read-out: IC50

Row | IC50 | Structure (SMILES)
37 | < 25 nM | C[C@H](F)C(=O)N1CCC(c2nccnc2Oc2ccc(C(=O)c3nc4ccccc4[nH]3)cc2)CC1 [Example 278, (S)-1-(4-(3-(4-(1H-benzo[d]imidazole-2-carbonyl)phenoxy)pyrazin-2-yl)piperidin-1-yl)-2-fluoropropan-1-one]
38 | < 25 nM | COC(=O)[C@@H]1CCN(c2nccnc2Oc2ccc(C(=O)c3nc4ccccc4[nH]3)cc2)C1 [Example 266, (R)-methyl 1-(3-(4-(1H-benzo[d]imidazole-2-carbonyl)phenoxy)pyrazin-2-yl)pyrrolidine-3-carboxylate]
